For six compounds, TD50 and carcinogen call results are on record in PubChem BioAssay AID1745844 (Carcinogenic Potency Database (CPDB), 2022).

Calls of active or inactive are those of the source. No rule for the calls is given here.

For this data set, the system named is rodent lifetime carcinogenesis bioassay, tumor incidence TD50. In words: chronic cancer bioassays in animals – CPDB, compiled studies (AID 1745844).

Take `CC1CO1` (stereo unspecified): the TD50 by setting is: (mouse, strain B6C3F1, females, inhaled, site: all sites, lesion: hemangioma + hemangiosarcoma, dosed 103 weeks, study length 104 weeks) 863 mg/kg/day; (mouse, strain B6C3F1, females, inhaled, site: all sites, lesion: hemangioma, dosed 103 weeks, study length 104 weeks) 1810 mg/kg/day; (mouse, strain B6C3F1, females, inhaled, site: all sites, lesion: hemangiosarcoma, dosed 103 weeks, study length 104 weeks) 1610 mg/kg/day; (mouse, strain B6C3F1, females, inhaled, site: any site (literature study), lesion: several types, types named in the paper, dosed 103 weeks, study length 104 weeks) 226 mg/kg/day; (mouse, strain B6C3F1, females, inhaled, site: liver, lesion: hepatocellular adenoma + hepatocellular carcinoma + neoplastic nodule, dosed 103 weeks, study length 104 weeks) 979 mg/kg/day; (mouse, strain B6C3F1, females, inhaled, site: lung, lesion: alveolar/bronchiolar adenoma + alveolar/bronchiolar carcinoma, dosed 103 weeks, study length 104 weeks) 588 mg/kg/day. Moreover, the TD50 is 588 mg/kg/day (mouse, strain B6C3F1, females, inhaled, site: lung, lesion: alveolar/bronchiolar adenoma, dosed 103 weeks, study length 104 weeks); 1260 mg/kg/day (mouse, strain B6C3F1, females, inhaled, site: mammary gland, lesion: adenocarcinoma + adenosquamous carcinoma, dosed 103 weeks, study length 104 weeks); 2770 mg/kg/day (mouse, strain B6C3F1, females, inhaled, site: mammary gland, lesion: adenosquamous carcinoma, dosed 103 weeks, study length 104 weeks); 1210 mg/kg/day (mouse, strain B6C3F1, females, inhaled, site: nasal cavity, lesion: hemangioma + hemangiosarcoma, dosed 103 weeks, study length 104 weeks); 2020 mg/kg/day (mouse, strain B6C3F1, females, inhaled, site: nasal cavity, lesion: hemangioma, dosed 103 weeks, study length 104 weeks); 753 mg/kg/day (mouse, strain B6C3F1, males, inhaled, site: all sites, lesion: hemangioma + hemangiosarcoma, dosed 103 weeks, study length 104 weeks). The TD50 reads like this: (mouse, strain B6C3F1, males, inhaled, site: any site (literature study), lesion: several types, types named in the paper, dosed 103 weeks, study length 104 weeks) 722 mg/kg/day; (mouse, strain B6C3F1, males, inhaled, site: nasal cavity, lesion: hemangioma + hemangiosarcoma, dosed 103 weeks, study length 104 weeks) 732 mg/kg/day; (mouse, strain B6C3F1, males, inhaled, site: nasal cavity, lesion: hemangioma, dosed 103 weeks, study length 104 weeks) 1470 mg/kg/day; (mouse, strain B6C3F1, males, inhaled, site: nasal cavity, lesion: hemangiosarcoma, dosed 103 weeks, study length 104 weeks) 1610 mg/kg/day; (rat, strain Fischer 344, females, inhaled, site: any site (literature study), lesion: several types, types named in the paper, dosed 103 weeks, study length 104 weeks) 124 mg/kg/day; (rat, strain Fischer 344, females, inhaled, site: cervix uteri + uterus, lesion: endometrial stromal polyp + endometrial stromal sarcoma, dosed 103 weeks, study length 104 weeks) 156 mg/kg/day. In addition, the TD50 is, setting by setting: (rat, strain Fischer 344, females, inhaled, site: nasal cavity, lesion: papillary adenoma, dosed 103 weeks, study length 104 weeks) 732 mg/kg/day; (rat, strain Fischer 344, males, inhaled, site: adrenal gland, lesion: pheochromocytoma, dosed 101 weeks, study length 104 weeks) 35.1 mg/kg/day; (rat, strain Fischer 344, males, inhaled, site: any site (literature study), lesion: several types, types named in the paper, dosed 103 weeks, study length 104 weeks) 220 mg/kg/day; (rat, strain Fischer 344, males, inhaled, site: liver, lesion: hepatocellular adenoma + hepatocellular carcinoma + neoplastic nodule, dosed 103 weeks, study length 104 weeks) 528 mg/kg/day; (rat, strain Fischer 344, males, inhaled, site: liver, lesion: hepatocellular carcinoma, dosed 101 weeks, study length 104 weeks) 2960 mg/kg/day; (rat, strain Fischer 344, males, inhaled, site: nasal cavity, lesion: papillary adenoma, dosed 103 weeks, study length 104 weeks) 826 mg/kg/day. Further, the TD50 is 44.3 mg/kg/day (rat, strain Sprague-Dawley, females, by gavage, site: forestomach, lesion: squamous-cell carcinoma, dosed 109 weeks, study length 150 weeks); 39.5 mg/kg/day (rat, strain Sprague-Dawley, females, by gavage, site: stomach, lesion: several types, types named in the paper, dosed 109 weeks, study length 150 weeks); 150 mg/kg/day (rat, strain Wistar-random, females, inhaled, site: any site (literature study), lesion: malignant tumor, dosed 123 weeks, study length 123 weeks); 25.7 mg/kg/day (rat, strain Wistar-random, females, inhaled, site: any site (literature study), lesion: one or several types, types not named, dosed 123 weeks, study length 123 weeks); 2460 mg/kg/day (rat, strain Wistar-random, females, inhaled, site: liver, lesion: cholangioma, dosed 123 weeks, study length 123 weeks); 813 mg/kg/day (rat, strain Wistar-random, females, inhaled, site: mammary gland, lesion: adenocarcinoma, dosed 123 weeks, study length 123 weeks). For the same compound, the TD50 (rat, strain Wistar-random, females, inhaled, site: mammary gland, lesion: fibroadenoma, dosed 123 weeks, study length 123 weeks) is 92.6 mg/kg/day; the TD50 (rat, strain Wistar-random, males, inhaled, site: any site (literature study), lesion: malignant tumor, dosed 124 weeks, study length 124 weeks) came out at 101 mg/kg/day; the TD50 (rat, strain Wistar-random, males, inhaled, site: any site (literature study), lesion: one or several types, types not named, dosed 124 weeks, study length 124 weeks) stood at 79.3 mg/kg/day; the TD50 (rat, strain Wistar-random, males, inhaled, site: respiratory system, lesion: carcinoma, dosed 124 weeks, study length 124 weeks) is 896 mg/kg/day.
With `CCOc1ccc(NC(=O)CC(C)O)cc1` (stereo unspecified), the TD50 by setting is: (mouse, strain B6C3F1, females, in feed, site: liver, lesion: hepatocellular adenoma, dosed 72 weeks, study length 84 weeks) 4000 mg/kg/day; (mouse, strain B6C3F1, females, in feed, site: lung, lesion: alveolar-cell tumor, dosed 72 weeks, study length 84 weeks) 11300 mg/kg/day; (mouse, strain B6C3F1, males, in feed, site: all sites, lesion: lymphoma and leukemia, combined, dosed 70 weeks, study length 84 weeks) 2740 mg/kg/day; (mouse, strain B6C3F1, males, in feed, site: kidney, lesion: renal-cell adenoma, dosed 70 weeks, study length 84 weeks) 5580 mg/kg/day; (mouse, strain B6C3F1, males, in feed, site: kidney, lesion: renal-cell carcinoma, dosed 70 weeks, study length 84 weeks) 5530 mg/kg/day; (mouse, strain B6C3F1, males, in feed, site: liver, lesion: hemangioma, dosed 70 weeks, study length 84 weeks) 406000 mg/kg/day. In addition, the TD50 (mouse, strain B6C3F1, males, in feed, site: liver, lesion: hepatocellular adenoma, dosed 70 weeks, study length 84 weeks) was determined as 17500 mg/kg/day; the TD50 (mouse, strain B6C3F1, males, in feed, site: lung, lesion: alveolar-cell tumor, dosed 70 weeks, study length 84 weeks) is 5280 mg/kg/day; the TD50 (mouse, strain B6C3F1, males, in feed, site: urinary bladder, lesion: papilloma, dosed 70 weeks, study length 84 weeks) came out at 46400 mg/kg/day.
`CCN(Cc1cccc(S(=O)(=O)O)c1)c1ccc(C(=C2C=CC(=[N+](CC)Cc3cccc(S(=O)(=O)O)c3)C=C2)c2ccc(O)cc2S(=O)(=O)[O-])cc1`: the carcinogen call was “negative (inactive)” (mouse, strain C3HeB/FeJ, females, in feed, site: any site (literature study), lesion: malignant tumor, dosed 104 weeks, study length 104 weeks); “negative (inactive)” (mouse, strain C3HeB/FeJ, females, in feed, site: any site (literature study), lesion: several types, types named in the paper, dosed 104 weeks, study length 104 weeks); “negative (inactive)” (mouse, strain C3HeB/FeJ, females, in feed, site: liver, lesion: hepatocellular adenoma, dosed 104 weeks, study length 104 weeks); “negative (inactive)” (mouse, strain C3HeB/FeJ, males, in feed, site: any site (literature study), lesion: malignant tumor, dosed 104 weeks, study length 104 weeks); “negative (inactive)” (mouse, strain C3HeB/FeJ, males, in feed, site: lung, lesion: adenoma, dosed 104 weeks, study length 104 weeks); “negative (inactive)” (rat, strain Osborne-Mendel, females, in feed, site: liver, lesion: one or several types, types not named, dosed 104 weeks, study length 104 weeks). For the same compound, the carcinogen call is “negative (inactive)” (rat, strain Osborne-Mendel, females, in feed, site: mammary gland, lesion: fibroadenoma, dosed 104 weeks, study length 104 weeks); “negative (inactive)” (rat, strain Osborne-Mendel, males, in feed, site: any site (literature study), lesion: malignant tumor, dosed 104 weeks, study length 104 weeks); “negative (inactive)” (rat, strain Osborne-Mendel, males, in feed, site: any site (literature study), lesion: several types, types named in the paper, dosed 104 weeks, study length 104 weeks); “negative (inactive)” (rat, strain Osborne-Mendel, males, in feed, site: liver, lesion: hepatocellular adenoma, dosed 104 weeks, study length 104 weeks). The TD50 by setting is: (mouse, strain C3HeB/FeJ, females, in feed, site: lung, lesion: adenoma, dosed 104 weeks, study length 104 weeks) 133000 mg/kg/day (inactive); (mouse, strain C3HeB/FeJ, males, in feed, site: any site (literature study), lesion: several types, types named in the paper, dosed 104 weeks, study length 104 weeks) 18100 mg/kg/day (inactive); (rat, strain Osborne-Mendel, females, in feed, site: any site (literature study), lesion: malignant tumor, dosed 104 weeks, study length 104 weeks) 46700 mg/kg/day (inactive); (rat, strain Osborne-Mendel, females, in feed, site: any site (literature study), lesion: several types, types named in the paper, dosed 104 weeks, study length 104 weeks) 18500 mg/kg/day (inactive).
Consider `C[C@]12C=CC(=O)C=C1CC[C@@H]1[C@@H]2[C@@H](O)C[C@@]2(C)[C@H]1CC[C@]2(O)C(=O)COC(=O)CCCc1ccc(N(CCCl)CCCl)cc1`, for which the TD50 (rat, strain Sprague-Dawley, females, by gavage, site: any site (literature study), lesion: benign tumor, dosed 78 weeks, study length 104 weeks) is 14 mg/kg/day (inactive); the TD50 (rat, strain Sprague-Dawley, females, by gavage, site: any site (literature study), lesion: malignant tumor, dosed 78 weeks, study length 104 weeks) was 21.6 mg/kg/day (inactive); the TD50 (rat, strain Sprague-Dawley, females, by gavage, site: external auditory canal, lesion: squamous-cell carcinoma, dosed 78 weeks, study length 104 weeks) was 19.2 mg/kg/day.
Take `Nc1ccc(-c2ccc(N)c(O)c2)cc1O`: the TD50 (mouse, strain ICR/Jcl, males, in feed, site: liver, lesion: hepatoma, dosed 65 weeks, study length 65 weeks) was 353 mg/kg/day.
As for `NNC(N)=S`, the carcinogen call is “negative (inactive)” (mouse, strain Swiss albino, females, in drinking water, site: liver, lesion: hepatoma, dosed 123 weeks, study length 124 weeks); “negative (inactive)” (mouse, strain Swiss albino, females, in drinking water, site: lung, lesion: one or several types, types not named, dosed 123 weeks, study length 124 weeks); “negative (inactive)” (mouse, strain Swiss albino, males, in drinking water, site: liver, lesion: hepatoma, dosed 115 weeks, study length 121 weeks); “negative (inactive)” (mouse, strain Swiss albino, males, in drinking water, site: lung, lesion: one or several types, types not named, dosed 115 weeks, study length 121 weeks). This compound also showed a TD50 (rat, strain Charles River CD (Sprague-Dawley), females, in feed, site: mammary gland, lesion: one or several types, types not named, dosed 78 weeks, study length 104 weeks) of 3.07 mg/kg/day.
